Experimental data as given in patent publication US6833456B2, “Indolyl-urea derivatives of thienopyridines useful as antiangiogenic agents, and methods for their use” (Agouron Pharmaceuticals, Inc., priority 2002, dated 2004).

Experiments:
PDGFRβ = biological target: T1, PDGFRβ (Homo sapiens, UniProt P09619); assay: PAE-PDGFRβ phosphorylation in PAE-PDGFRB cells assay; assay type: cell-based; details: PAE cells overexpressing human PDGFRβ, PDGF-BB stimulated; read-out: PAE PDGFR autophos IC50
T1 construct: expressed in transfected cells; host or cells: porcine aorta endothelial (PAE) cells
T1 sequence (P09619 33-1106): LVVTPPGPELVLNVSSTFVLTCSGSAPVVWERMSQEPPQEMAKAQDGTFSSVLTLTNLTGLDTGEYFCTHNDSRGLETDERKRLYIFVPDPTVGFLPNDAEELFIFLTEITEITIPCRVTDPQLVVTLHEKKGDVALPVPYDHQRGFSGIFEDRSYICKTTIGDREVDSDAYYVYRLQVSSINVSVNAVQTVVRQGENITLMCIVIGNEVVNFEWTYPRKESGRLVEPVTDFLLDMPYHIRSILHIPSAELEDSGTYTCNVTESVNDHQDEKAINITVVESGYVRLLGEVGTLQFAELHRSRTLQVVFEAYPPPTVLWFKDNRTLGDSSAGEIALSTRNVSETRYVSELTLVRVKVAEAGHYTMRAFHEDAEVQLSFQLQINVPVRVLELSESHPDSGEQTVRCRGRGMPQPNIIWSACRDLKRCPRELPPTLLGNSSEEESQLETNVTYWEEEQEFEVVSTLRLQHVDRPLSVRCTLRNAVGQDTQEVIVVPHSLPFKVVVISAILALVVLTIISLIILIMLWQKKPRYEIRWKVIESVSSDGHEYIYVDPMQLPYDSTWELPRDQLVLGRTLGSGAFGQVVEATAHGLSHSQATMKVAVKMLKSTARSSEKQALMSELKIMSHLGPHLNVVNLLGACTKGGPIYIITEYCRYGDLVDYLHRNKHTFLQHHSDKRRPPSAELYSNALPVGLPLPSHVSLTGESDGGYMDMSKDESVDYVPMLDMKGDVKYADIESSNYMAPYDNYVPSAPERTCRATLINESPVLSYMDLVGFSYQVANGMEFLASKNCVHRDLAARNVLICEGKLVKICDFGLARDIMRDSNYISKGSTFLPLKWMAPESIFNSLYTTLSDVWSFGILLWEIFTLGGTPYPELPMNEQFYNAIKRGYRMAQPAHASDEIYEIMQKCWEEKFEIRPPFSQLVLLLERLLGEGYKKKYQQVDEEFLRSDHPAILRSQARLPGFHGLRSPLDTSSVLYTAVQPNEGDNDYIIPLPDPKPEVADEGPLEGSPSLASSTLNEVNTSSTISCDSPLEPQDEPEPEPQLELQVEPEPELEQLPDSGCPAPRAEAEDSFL
Protocol: This assay determines the ability of a test compound to inhibit the autophosphorylation of PDGFRβ in porcine aorta endothelial (PAE)-PDGFRβ cells. PAE cells that overexpress human PDGFRβ were used in this assay. The cells were cultured in Ham's F12 media supplemented with 10% fetal bovine serum (FBS) and 400 ug/ml G418. Twenty thousands cells were seeded in each well of a 96-well plate in 50 μL of growth media and allowed to attach for 6 hours at 37° C. Cells were then exposed to the starvation media (Ham's F12 media supplemented with 0.1% FBS) for 16 hours. After the starvation period was over, 10 μL of test agent in 5% DMSO in starvation media were added to the test wells and 10 μL of the vehicle (5% DMSO in starvation media) were added into the control wells. The final DMSO concentration in each well was 0.5%. Plates were incubated at 37° C. for 1 hour and the cells were then stimulated with 1 μg/mL PDGF-BB (R & D System) in the presence of 2 mM Na3VO4 for 8 minutes. The cells were washed once with 1 mm Na3VO4 in HBSS and lysed by adding 50 μL per well of lysis buffer. One hundred μL of dilution buffer were then added to each well and the diluted cell lysate was transferred to a 96-well goat ant-rabbit coated plate (Pierce), which was pre-coated with Rabbit anti Human PDGFRβ antibody (Santa Cruz). The plates were incubated at room temperature for 2 hours and washed seven times with 1% Tween 20 in PBS. HRP-PY20 (Santa Cruz) was diluted and added to the plate for a 30-minute incubation. Plates were then washed again and TMB peroxidase substrate (Kirkegaard & Perry) was added for a 10-minute incubation. One hundred μL of 0.09 N H2SO4 was added into each well of the 96-well plate to stop the reaction. Phosphorylation status was assessed by spectrophotometer reading at 450 nm. IC50 values were calculated by curve fitting using a four-parameter analysis.

[1] = system: human umbilical vein endothelial cells (HUVEC); assay: HUVEC+VEGF proliferation assay; assay type: cell-based; details: VEGF 6 ng/mL, MTT
Protocol: This assay determines the ability of a test compound to inhibit the growth factor-stimulated proliferation of human umbilical vein endothelial cells (“HUVEC”). HUVEC cells (passage 3-4, Clonetics, Corp.) were thawed into EGM2 culture medium (Clonetics Corp) in T75 flasks. Fresh EGM2 medium was added to the flasks 24 hours later. Four or five days later, cells were exposed to another culture medium (F12K medium supplemented with 10% fetal bovine serum (FBS), 60 μg/mL endothelial cell growth supplement (ECGS), and 0.1 mg/mL heparin). Exponentially-growing HUVEC cells were used in experiments thereafter. Ten to twelve thousand HUVEC cells were plated in 96-well dishes in 100 μl of rich, culture medium (described above). The cells were allowed to attach for 24 hours in this medium. The medium was then removed by aspiration and 105 μl of starvation media (F12K+1% FBS) was added to each well. After 24 hours, 15 μl of test agent dissolved in 1% DMSO in starvation medium or this vehicle alone was added into each treatment well; the final DMSO concentration was 0.1%. One hour later, 30 μl of VEGF (30 ng/mL) in starvation media was added to all wells except those containing untreated controls; the final VEGF concentration was 6 ng/mL. Cellular proliferation was quantified 72 hours later by MTT dye reduction, at which time cells were exposed for 4 hours MTT (Promega Corp.). Dye reduction was stopped by addition of a stop solution (Promega Corp.) and absorbance at 595 nm was determined on a 96-well spectrophotometer plate reader.

Mouse PK assay = assay type: in vivo, B6 female mice; details: for AUC / Cmax: female, B6, mouse, plasma; for Mouse Cmin, po / AUC / Cmax: po; for Cmax: read-out: Mouse Cmax, po ng-h/mL
Protocol: The pharmacokinetics (e.g., absorption and elimination) of drugs in mice were analyzed using the following experiment. Test compounds were formulated as a suspension in a 30:70 (PEG 400: acidified H2O) vehicle. This solution was administered orally (p.o.) and intraperitoneally (i.p.) at 50 mg/kg to two distinct groups (n=4) of B6 female mice. Blood samples were collected via an orbital bleed at time points: 0 hour (pre-dose), 0.5 hr, 1.0 hr, 2.0 hr, and 4.0 hr post dose. Plasma was obtained from each sample by centrifugation at 2500 rpm for 5 min. Test compound was extracted from the plasma by an organic protein precipitation method. For each time bleed, 50 μL of plasma was combined with 1.0 mL of acetonitrile, vortexed for 2 min. and then spun at 4000 rpm for 15 min. to precipitate the protein and extract out the test compound. Next, the acetonitrile supernatant (the extract containing test compound) was poured into new test tubes and evaporated on a hot plate (25° C.) under a steam of N2 gas. To each tube containing the dried test compound extract, 125 μL of mobile phase (60:40, 0.025 M NH4H2PO4+2.5 mL/L TEA:acetonitrile) was added. The test compound was resuspended in the mobile phase by vortexing and more protein was removed by centrifugation at 4000 rpm for 5 min. Each sample was poured into an HPLC vial for test compound analysis on an Hewlett Packard 1100 series HPLC with UV detection. From each sample, 95 μL was injected onto a Phenomenex-Prodigy reverse phase C-18, 150×3.2 mm column and eluted with a 45-50% acetonitrile gradient run over 10 min. Test-compound plasma concentrations (μg/mL) were determined by a comparison to standard curve (peak area vs. conc. μg/mL) using known concentrations of test compound extracted from plasma samples in the manner described above. Along with the standards and unknowns, three groups (n=4) of quality controls (0.25 μg/mL, 1.5 μg/mL, and 7.5 μg/mL) were run to insure the consistency of the analysis. […] The quantitated test samples were plotted for visual display using Kaleidagraph software and their pharmacokinetic parameters were determined using WIN NONLIN software.

[2] = biological target: T2, unphosphorylated VEGF-R2Δ50 (FLVK) (Homo sapiens, UniProt P35968, DEL940-989/E990V); assay: VEGF-R2 coupled spectrophotometric assay, unphosphorylated construct (FLVK); assay type: biochemical
T2 construct: VEGF-R2Δ50 contains residues 806-939 and 990-1171; made in house; host or cells: baculovirus/insect cell system
T2 sequence (P35968 with tags, fused parts or gaps DEL940-989/E990V limits assumed): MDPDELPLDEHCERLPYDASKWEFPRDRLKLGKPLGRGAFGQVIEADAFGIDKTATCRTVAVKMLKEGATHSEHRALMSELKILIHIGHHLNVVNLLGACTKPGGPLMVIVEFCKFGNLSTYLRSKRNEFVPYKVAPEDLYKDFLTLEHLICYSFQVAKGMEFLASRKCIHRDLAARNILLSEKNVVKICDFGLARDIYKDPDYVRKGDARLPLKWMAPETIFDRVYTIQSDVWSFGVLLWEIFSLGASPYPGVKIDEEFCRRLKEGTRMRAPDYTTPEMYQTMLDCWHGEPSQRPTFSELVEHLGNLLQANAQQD
Method in brief: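 Human VEGF-R2Δ50 cytosolic kinase (residues 806-939/990-1171, E990V), baculovirus-expressed, unphosphorylated form. PK/LDH-coupled NADH oxidation at 340 nm with 20 mM poly(E4Y1), 3 mM ATP, 60 mM MgCl2, 2 mM MnCl2, 200 mM HEPES pH 7.5, 5-40 nM enzyme; Ki fitted by Morrison equation.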

KDR (VEGFR2) = biological target: T3, KDR (VEGFR2) (Homo sapiens, UniProt P35968); assay: KDR (VEGFR2) phosphorylation in PAE-KDR cells assay; assay type: cell-based; details: PAE cells overexpressing human KDR, VEGF stimulated; read-out: PAE KDR autophos IC50
T3 construct: expressed in transfected cells; host or cells: porcine aorta endothelial (PAE) cells
T3 sequence (P35968 20-1356): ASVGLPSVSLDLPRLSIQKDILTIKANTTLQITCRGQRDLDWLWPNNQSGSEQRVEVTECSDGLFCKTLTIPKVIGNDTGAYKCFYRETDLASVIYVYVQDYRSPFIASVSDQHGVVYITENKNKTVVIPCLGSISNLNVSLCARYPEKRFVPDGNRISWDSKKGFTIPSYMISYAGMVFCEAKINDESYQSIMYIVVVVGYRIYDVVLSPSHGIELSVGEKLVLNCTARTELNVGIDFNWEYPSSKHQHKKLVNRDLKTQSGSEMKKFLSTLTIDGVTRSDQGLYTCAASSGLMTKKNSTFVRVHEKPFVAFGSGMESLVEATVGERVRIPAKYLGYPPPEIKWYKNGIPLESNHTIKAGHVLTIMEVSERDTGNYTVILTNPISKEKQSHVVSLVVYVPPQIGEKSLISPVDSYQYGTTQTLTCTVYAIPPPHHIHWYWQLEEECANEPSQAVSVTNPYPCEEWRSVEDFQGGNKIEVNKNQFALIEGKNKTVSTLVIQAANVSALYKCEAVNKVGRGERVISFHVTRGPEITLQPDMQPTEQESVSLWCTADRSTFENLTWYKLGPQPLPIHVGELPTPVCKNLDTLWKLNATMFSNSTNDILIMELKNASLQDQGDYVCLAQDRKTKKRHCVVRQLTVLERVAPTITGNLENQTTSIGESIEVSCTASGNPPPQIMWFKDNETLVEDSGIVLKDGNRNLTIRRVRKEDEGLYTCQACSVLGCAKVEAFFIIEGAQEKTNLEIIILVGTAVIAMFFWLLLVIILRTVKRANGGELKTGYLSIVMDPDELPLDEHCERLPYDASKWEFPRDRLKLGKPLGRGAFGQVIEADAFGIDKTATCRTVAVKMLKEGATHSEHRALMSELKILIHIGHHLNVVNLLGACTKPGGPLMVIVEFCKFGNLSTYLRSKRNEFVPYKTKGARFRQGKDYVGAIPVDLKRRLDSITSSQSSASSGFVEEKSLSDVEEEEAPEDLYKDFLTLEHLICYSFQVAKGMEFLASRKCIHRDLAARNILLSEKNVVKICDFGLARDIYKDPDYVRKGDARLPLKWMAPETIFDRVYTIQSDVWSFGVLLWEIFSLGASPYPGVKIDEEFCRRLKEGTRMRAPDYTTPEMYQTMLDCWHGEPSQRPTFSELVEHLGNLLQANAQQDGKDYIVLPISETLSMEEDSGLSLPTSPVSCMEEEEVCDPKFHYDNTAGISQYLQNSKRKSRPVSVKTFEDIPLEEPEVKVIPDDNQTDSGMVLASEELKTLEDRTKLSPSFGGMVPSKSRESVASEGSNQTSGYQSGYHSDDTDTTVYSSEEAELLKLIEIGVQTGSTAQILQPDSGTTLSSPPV
Protocol: This assay determines the ability of a test compound to inhibit the autophosphorylation of KDR in porcine aorta endothelial (PAE)-KDR cells. PAE cells that overexpress human KDR were used in this assay. The cells were cultured in Ham's F12 media supplemented with 10% fetal bovine serum (FBS) and 400 ug/mL G418. Thirty thousands cells were seeded into each well of a 96-well plate in 75 μL of growth media and allowed to attach for 6 hours at 37° C. Cells were then exposed to the starvation media (Ham's F12 media supplemented with 0.1% FBS) for 16 hours. After the starvation period was over, 10 μL of test agent in 5% DMSO in starvation media were added to the test wells and 10 μL of the vehicle (5% DMSO in starvation media) were added into the control wells. The final DMSO concentration in each well was 0.5%. Plates were incubated at 37° C. for 1 hour and the cells were then stimulated with 500 ng/ml VEGF (commercially available from R & D System) in the presence of 2 mM Na3VO4 for 8 minutes. The cells were washed once with 1 mm Na3VO4 in HBSS and lysed by adding 50 μL per well of lysis buffer. One hundred μL of dilution buffer were then added to each well and the diluted cell lysate was transferred to a 96-well goat ant-rabbit coated plate (commercially available from Pierce) which was pre-coated with Rabbit anti Human Anti-flk-1 C-20 antibody (commercially available from Santa Cruz). The plates were incubated at room temperature for 2 hours and washed seven times with 1% Tween 20 in PBS. HRP-PY20 (commercially available from Santa Cruz) was diluted and added to the plate for a 30-minute incubation. Plates were then washed again and TMB peroxidase substrate (commercially available from Kirkegaard & Perry) was added for a 10-minute incubation. One hundred μL of 0.09 N H2SO4 was added to each well of the 96-well plates to stop the reaction. Phosphorylation status was assessed by spectrophotometer reading at 450 nm. IC50 values were calculated by curve fitting using a four-parameter analysis.

Structure (SMILES)	IC50 (PDGFRβ)	IC50 ([1]; 72 hours)	Mouse PK AUC, po ng-h/mL (Mouse PK assay; p.o., 50 mg/kg)	Mouse Cmin, po (Mouse PK assay)	Ki [2]	FLVK (% @ 50 (nM)) ([2]; percent inhibition at 50 nM)	IC50 ([1]; Homo sapiens, HUVEC, 72 h)	AUC (Mouse PK assay; 50 mg/kg)	Cmax (Mouse PK assay; 50 mg/kg, p.o., 50 mg/kg)	inhibition at 0.05 µM ([2]; percent inhibition at 50 nM)	IC50 (KDR (VEGFR2))
CO[C@H]1CCN(C(=O)c2cc3nccc(Nc4ccc5c(c4)cc(C)n5C(=O)NC4CC4)c3s2)C1 [Example 1f, 5-[2-(3S-Methoxy-pyrrolidine-1-carbonyl)-thieno[3,2-b]pyridin-7-ylamino]-2-methyl-indole-1-carboxylic acid cyclopropylamide]	175 nM	0.68 nM	1837 ng·h/mL	4 ng/mL	0.21 nM	97%					
Cc1cc2cc(Nc3ccnc4cc(C(=O)N5CC[C@@H](O)C5)sc34)ccc2n1C(=O)NC1CC1 [Example 1q, 5-[2-(3R-Hydroxy-pyrrolidine-1-carbonyl)-thieno[3,2-b]pyridin-7-ylamino]-2-methyl-indole-1-carboxylic acid cyclopropylamide]	> 1000 nM			0 ng/mL	0.17 nM		0.481 nM	6 ng·h/mL	5 ng/mL	99%	
CNC(=O)n1c(C)cc2c(F)c(Oc3ccnc4cc(-c5nc(C(C)(C)O)cs5)sc34)ccc21 [Example 3k, 4-Fluoro-5-{2-[4-(1-hydroxy-1-methyl-ethyl)-thiazol-2-yl]-thieno[3,2-b]pyridin-7-yloxy}-2-methyl-indole-1-carboxylic acid methylamide]	18.4 nM				0.071 nM					100%	0.3 nM
C#CCNC(=O)n1c(C)cc2c(F)c(Oc3ccnc4cc(C(=O)N5CCC[C@H]5COC)sc34)ccc21 [Example 5c, 4-Fluoro-5-[2-(2S-methoxymethyl-pyrrolidine-1-carbonyl)-thieno[3,2-b]pyridin-7-yloxy]-2-methyl-indole-1-carboxylic acid prop-2-ynylamide]	7.7 nM				0.605 nM		0.115 nM	36200 ng·h/mL	19700 ng/mL	99%	
C#CCNC(=O)n1c(C)cc2c(F)c(Oc3ccnc4cc(C(=O)N5CC[C@H](OC)C5)sc34)ccc21 [Example 5g, 4-Fluoro-5-[2-(3S-methoxy-pyrrolidine-1-carbonyl)-thieno[3,2-b]pyridin-7-yloxy]-2-methyl-indole-1-carboxylic acid prop-2-ynylamide]	11.2 nM			65 ng/mL	0.45 nM		0.15 nM	1170 ng·h/mL	321 ng/mL	99%	
C#CCNC(=O)n1c(C)cc2c(F)c(Oc3ccnc4cc(C(=O)N5CC[C@@H](O)C5)sc34)ccc21 [Example 5p, 4-Fluoro-5-[2-((R)-3-hydroxy-pyrrolidine-1-carbonyl)-thieno[3,2-b]pyridin-7-yloxy]-2-methyl-indole-1-carboxylic acid prop-2-ynylamide]	4.6 nM				0.083 nM					100%	0.35 nM
C#CCNC(=O)n1c(C)cc2cc(Nc3ccnc4cc(C(=O)N5CCC[C@@H]5COC)sc34)ccc21 [Example 7d, 5-[2-(2R-Methoxymethyl-pyrrolidine-1-carbonyl)-thieno[3,2-b]pyridin-7-ylamino]-2-methyl-indole-1-carboxylic acid prop-2-ynylamide]	62 nM				0.504 nM					96%	0.26 nM
CNC(=O)n1c(C)cc2cc(Oc3ccnc4cc(C(=O)N5C[C@H](OC)[C@@H](OC)C5)sc34)ccc21 [Example 8b, 5-[(2-{[(3S,4S)-3,4-Dimethoxypyrrolidin-1-yl]carbonyl}thieno[3,2-b]pyridin-7-yl)oxy]-2-dimethyl-1H-indole-1-carboxylic acid methylamide]					0.202 nM					97%	0.24 nM
CCCNC(=O)n1c(C)cc2cc(Oc3ccnc4cc(C(=O)N5CC[C@@H](N(C)C)C5)sc34)ccc21 [Example 8h, 5-[(2-{[(3R)-3-(Dimethylamino)pyrrolidin-1-yl]carbonyl}thieno[3,2-b]pyridin-7-yl)oxy]-2-methyl-N-propyl-1H-indole-1-carboxamide]	19 nM			204 ng/mL	0.301 nM		0.16 nM	2390 ng·h/mL	920 ng/mL	99%	
